Experimental data published in patent US20230040357A1, “PHARMACEUTICAL COMPOSITION AND HEALTH FUNCTIONAL FOOD FOR PREVENTING, AMELIORATING OR TREATING DIABETES CONTAINING WASP EXTRACT AS ACTIVE INGREDIENT” (Andong National University Industry-Academic cooperation …, priority 2021, published 2023).
Values joined by “and” are separate entries in the source; they are usually repeats but may differ in a detail not shown here. Equal entries are not always repeated.

System: human erythrocytes
Assay: human erythrocyte hemolytic activity
Type: cell-based
Conditions: 37° C., 30 minutes
Method: In order to evaluate the acute toxicities of the wasp extracts, the human erythrocyte hemolytic activities of the wasp extracts were evaluated, and the results of the evaluation are shown in Table 3 below. At this time, the hemolytic activity was evaluated according to a previous report (Son Ho-Yong et al., 2014, Korean J. Microbiol. Biotechnol. 42: 285-292). Briefly, 100 μl of human erythrocytes were washed three times with PBS and added to a 96-well microplate, and 100 μl of a sample solution at various concentrations was added thereto and then allowed to react at 37° C. for 30 minutes. Thereafter, the reaction solution was centrifuged at 1,500 rpm for 10 minutes, and 100 μl of the supernatant was transferred to a fresh microtiter plate, and then the degree of hemoglobin leakage following hemolysis was measured at 414 nm. DMSO (2%) was used as a solvent control for the sample, and Triton X-100 (1 mg/ml) was used as an experimental control for hemolysis of erythrocytes. Hemolytic activity was calculated using the following equation.
(%) Hemolysis=[(Abs. S−Abs. C)/(Abs. T−Abs. C)]×100
Abs. S: absorbance of sample-added group
Abs. C: absorbance of DMSO-added group
Abs. T: absorbance of Triton X-100-added group

Compound: C[C@@H]1[C@H](O)[C@@H](C)/C=C/C=C/C=C/C=C/C=C/C=C/C=C/[C@H](O[C@@H]2O[C@H](C)[C@@H](O)[C@H](N)[C@@H]2O)C[C@@H]2O[C@](O)(C[C@@H](O)C[C@@H](O)[C@H](O)CC[C@@H](O)C[C@@H](O)CC(=O)O[C@H]1C)C[C@H](O)[C@H]2C(=O)O [Amphotericin B]
- Human erythrocyte hemolytic activity (0.0032 mg/ml): 6.54 ± 0.9%
- Human erythrocyte hemolytic activity (0.0063 mg/ml): 21.6 ± 3.7%
- Human erythrocyte hemolytic activity (0.0125 mg/ml): 48.2 ± 5.9%
- Human erythrocyte hemolytic activity (0.05 mg/ml): 72.4 ± 5.2%
- Human erythrocyte hemolytic activity (0.1 mg/ml): 95.8 ± 0.3%

Compound: Triton X-100
- Human erythrocyte hemolytic activity (1.0 mg/ml): 100% and 100.0 ± 0.1%
